Test results from PMC12628652, “A Validated UPLC‐MS/MS Method for Monitoring Temozolomide and Perillyl Alcohol Metabolites in Biological Matrices: Insights From a Preclinical Pharmacokinetic Study” (Biomedical Chromatography, 2025).
Entries after “also recorded” stand apart in the source; their conditions may differ.

Key:
[1] = Biodistribution study in rats 4 h after single oral administration of POH and TMZ; type: in vivo, Male Wistar rats; conditions: n = 4; for tissue concentrations (brain, liver, spleen, kidney, lung), in words: rats
Method: Following blood collection, animals were anesthetized and euthanized, and their organs (kidneys, liver, spleen, brain, and lungs) were promptly excised and stored at −20°C. Tissue samples were homogenized in PBS (pH 7.4) at a ratio of 1 part tissue to 5 parts buffer (w/v), using a mechanical homogenizer equipped with a 5 mm probe.
For chromatographic analysis, 200 μL of each tissue homogenate was mixed with 50 μL of IS solution (final IS concentration: 100 ng/mL) and 750 μL of ACN to reach a final volume of 1 mL. The mixture was centrifuged at 3500 rpm for 10 min at 20°C. The supernatant was collected, filtered through a 0.22 μm membrane, and transferred to injection vials for UPLC‐MS/MS analysis. When necessary, samples were diluted appropriately to ensure analyte concentrations fell within the validated linear range.
The pharmacokinetic and biodistribution study was conducted in accordance with ethical guidelines and approved by the Animal Ethics Committee of the Universidade Estadual do Centro‐Oeste, Brazil (Protocol No. 026/2023). Male Wistar rats (n = 6 for pharmacokinetics; n = 4 for biodistribution), weighing approximately 200 g, were housed under controlled environmental conditions (12 h light/dark cycle, 35% relative humidity, and temperature of 23°C ± 2°C). Animals had free access to food and water, which were withheld 10 h prior to drug administration and resumed 2 h afterward.
Each animal received a single oral dose of POH (47 mg/kg) and TMZ (2 mg/kg). For pharmacokinetic profiling, blood samples were collected via the tail vein into heparinized tubes at predefined time points: 0.5, 1, 2, 4, 8, 12, and 24 h post‐administration. For biodistribution analysis, a separate cohort of rats (n = 4) was sacrificed 4 h after dosing. Organs, including the brain, liver, lungs, kidneys, and spleen, were collected, homogenized, and stored at −20°C for subsequent quantification, as detailed in Section 3.2.

[2] = set-up: method as in Ostermann et al. [2004]; conditions: ref Ostermann et al. [2004]; cited from earlier work
[3] = rat brain, 4 h after single oral dose POH 47 mg/kg and TMZ 2 mg/kg
[4] = 4 h after single oral dose POH 47 mg/kg and TMZ 2 mg/kg

## NC(=O)c1[nH]cnc1N [AIC, 5‐aminoimidazole‐4‐carboxamide]
[1]; [3]
  brain concentration / CNS penetration, in words: lower brain concentrations
[1]; [4]
  tissue concentrations (brain, liver, spleen, kidney, lung), in words: lowest tissue concentrations

## C=C(C)[C@@H]1CC=C(C(=O)O)CC1 [PA, perillic acid]
[1]; [3]
  brain concentration / CNS penetration, in words: limited brain penetration; also recorded: lower brain concentrations
[1]; rat liver, 4 h after single oral dose POH 47 mg/kg and TMZ 2 mg/kg
  hepatic accumulation, in words: marked hepatic accumulation
[1]; [4]
  tissue concentrations (brain, liver, spleen, kidney, lung), in words: mainly distributed to liver and kidneys

## Cn1nnc2c(C(N)=O)ncn2c1=O [TMZ, Temozolomide]
[1]; male, Wistar, rat brain, 4 h after single oral dose TMZ 2 mg/kg and POH 47 mg/kg
  concentration at 4 h: ~1000 ng/mL
[1]; [3]
  brain concentration / CNS penetration, in words: highest concentration in the brain
[1]; [4]
  tissue concentrations (brain, liver, spleen, kidney, lung), in words: highest tissue concentrations in all organs
[2]
  share of the plasma concentration reaching brain tissues: ~ 20%
